Laboratory results taken from patent publication US20250099420A1, “SMALL MOLECULE MODULATORS OF GPR139 COMPLEX” (University of Florida Research Foundation, Incorporated, priority 2022, published 2025).
Like-named read-outs stand apart in the source and are kept apart here.

What was measured:
[1] = test system: parental HEK cells; test: HEK parental Agonist Counterscreen Assay (non-transfected cells); type: cell-based; settings: for Averaged Max % Response (±St. Dev.): activity relative to known control
From the text: The high control for the agonist counterscreen was Forskolin not acetylcholine.

[2] = molecular target: T1, GPR139 (Homo sapiens, UniProt Q6DWJ6); test: GPR139 Agonist titration / agonist counterscreen assay (calcium detection, HEK-GPR139 cells); type: cell-based; set-up: expressed in transfected cells; host or cells: HEK Aequorin cells, Maxcyte transient transfection; settings: GPR139 Agonist Activity; for Averaged Max % Response (±St. Dev.): activity relative to known control; for EC50: read-out: EC50
T1 sequence (Q6DWJ6 1-353): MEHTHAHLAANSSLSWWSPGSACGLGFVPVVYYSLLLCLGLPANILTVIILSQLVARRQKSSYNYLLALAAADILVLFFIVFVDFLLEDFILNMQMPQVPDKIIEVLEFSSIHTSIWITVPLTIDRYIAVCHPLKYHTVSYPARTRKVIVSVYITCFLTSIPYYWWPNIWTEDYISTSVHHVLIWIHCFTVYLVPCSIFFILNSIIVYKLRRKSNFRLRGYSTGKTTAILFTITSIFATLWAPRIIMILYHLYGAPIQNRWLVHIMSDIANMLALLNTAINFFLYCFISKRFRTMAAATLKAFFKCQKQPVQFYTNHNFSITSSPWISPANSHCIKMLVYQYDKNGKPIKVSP
Procedure: GPR activity was assessed using a calcium detection assay. […] Negative control samples were treated with DMSO. […] Intracellular calcium was measured using Calcium 5.

[3] = Homo sapiens, HEK293, HEK Agonist Activity, parental non-transfected HEK cells
[4] = HEK Agonist Activity section of Table 4 (parental HEK counterscreen)
[5] = values printed in E-notation without unit
[6] = Homo sapiens, HEK293, HEK Agonist Activity section of Table 4 (parental HEK counterscreen)
[7] = HEK Agonist Activity, parental non-transfected HEK cells

Structure (SMILES)	Averaged Max % Response (±St. Dev.) [2] [%]	Lipophilic Efficiency (logD) ([2]; based on logD)	Lipophilic Efficiency (logP) ([2]; based on logP)	Efficiency Ligand ([2]; ligand efficiency)	Lipophilic Efficiency (logD) ([1]; HEK Agonist Activity section)	Lipophilic Efficiency (logP) ([1]; HEK Agonist Activity section)	EC50 [1, 4] [nM]	Averaged Max % Response (±St. Dev.) ([1]; HEK Agonist Activity section) [%]	Hill Slope ([2]; fitted dose-response curve)	EC50 [2, 5] [nM]	Efficiency Ligand [2]	Lipophilic Efficiency (logD) [2]	Lipophilic Efficiency (logP) [2]	also measured
O=C(CCc1nc2ccccc2n1-c1ccccc1)NCCc1ccccc1 [SR-01000535824]	136.02 ± 19.68	2.73	2.73	0.39										Lipophilic Efficiency (logD) ([1]; HEK Agonist Activity): −0.133; Lipophilic Efficiency (logP) ([1]; HEK Agonist Activity): −0.133; Averaged Max % Response (±St. Dev.) ([1]; HEK Agonist Activity): 34.71 ± 16.19%; EC50 [1, 3]: > 12100 nM
CSc1cccc(NC(=O)C2C3C=CC4(O3)C2C(=O)N(C(C)c2ccccc2)C4C(=O)NC2CCCC(C)C2C)c1 (centres unmarked) [SR-01000545824]	103.05 ± 12.22	1.92	1.92	0.23	−0.052	−0.052	> 13600	−0.19 ± 3.69	0.41	145				
CSc1cccc(NC(=O)C2C3C=CC4(O3)C2C(=O)N(C(C)c2ccccc2)C4C(=O)NC2CCCCC2)c1 (centres unmarked) [SR-01000546462]	107.13 ± 9.94	2.98	2.98	0.26	0.56	0.56	> 15100	0.58 ± 3.78	0.51	56.5				
Cc1ccc(CN2CC34C=CC(O3)C(C(=O)NCCC3=CCCCC3)C4C2=O)cc1 (centres unmarked) [SR-01000550322]	86.57 ± 2.15				1.99	1.99	> 13400	−6.25 ± 1.61			0.27	2.87	2.87	Hill Slope [2]: 0.73; EC50 ([2]; HEK-GPR139 cells): 1800 nM
CCc1cc(C2=C/C(=C/c3c(OC)ccc4ccccc34)C(=O)O2)cc(OC)c1OC [SR-01000551463]	110.88 ± 6.83	3.11	3.11	0.33	0.71	0.71		18.60 ± 9.91	0.64	49.6				EC50 [1, 6]: > 12200 nM
C=C1N=C(NC2CCCCCC2)c2ccccc2N1 [SR-01000565308]	90.10 ± 8.93				1.03	0.98		25.00 ± 13.25			0.45	2.40	2.36	EC50 [1, 6]: > 17500 nM; Hill Slope [2]: 1.89
Cc1cccc(-n2cnc3cc(C(=O)NCc4ccc5c(c4)OCO5)ccc32)c1 [SR-01000579592]	96.78 ± 10.47				0.80	0.80		−14.67 ± 10.75			0.28	1.75	1.75	EC50 [1, 6]: > 13300 nM; EC50 ([2]; HEK-GPR139 cells): > 1500 nM
CC12C=CC3(CN(Cc4ccccc4)C(=O)C3C1C(=O)NCc1ccco1)O2 (centres unmarked) [SR-01000582958]	101.07 ± 20.22	5.28	5.28	0.33	3.51	3.51	> 13400	10.03 ± 5.09	0.87	228				
CC12C=CC3(CN(Cc4ccccc4)C(=O)C3C1C(=O)NCC1COc3ccccc3O1)O2 (centres unmarked) [SR-01000582967]	117.27 ± 2.34				2.93	2.93	> 13100	−6.63 ± 2.99			0.27	4.47	4.47	Hill Slope [2]: 0.38; EC50 ([2]; HEK-GPR139 cells): 375 nM
CC1CC(C)CN(C(=O)C2C3C=CC4(CN(Cc5ccccc5Cl)C(=O)C24)O3)C1 (centres unmarked) [SR-01000583192]	108.22 ± 25.63	4.61	4.61	0.35	2.09	2.09	> 15900	13.45 ± 13.24	0.51	48.1				
O=C(NCCc1ccc(Cl)cc1)c1ccc(N2CC3CC(C2)c2cccc(=O)n2C3)c(NS(=O)(=O)c2ccc3c(c2)OCCO3)c1 (centres unmarked) [SR-01000583473]	116.62 ± 3.81	3.89	3.71	0.23					0.26	40.1				Hill Slope ([1]; HEK Agonist Activity): 0.45; Lipophilic Efficiency (logD) ([1]; HEK Agonist Activity): 1.64; Lipophilic Efficiency (logP) ([1]; HEK Agonist Activity): 1.46; Averaged Max % Response (±St. Dev.) ([1]; HEK Agonist Activity): 54.64 ± 8.92%; EC50 [1, 7]: 7200 nM
O=C(CN1CC(=O)N(Cc2ccc(O)cc2)C(c2ccccc2Cl)C1=O)NCc1ccco1 (centres unmarked) [SR-01000583711]	95.83 ± 14.92				1.87	1.87		9.29 ± 2.62			0.27	3.24	3.24	EC50 [1, 6]: > 11100 nM; Hill Slope [2]: 0.32; EC50 ([2]; HEK-GPR139 cells): 469 nM
COP(=O)(CN(CCc1ccc(Cl)cc1)C(=O)Nc1ccc(Cl)c(Cl)c1)OC [SR-01000584158]	123.61 ± 28.77	2.25	2.25	0.37					0.47	36.6				Lipophilic Efficiency (logD) ([1]; HEK Agonist Activity): −0.34; Lipophilic Efficiency (logP) ([1]; HEK Agonist Activity): −0.34; Averaged Max % Response (±St. Dev.) ([1]; HEK Agonist Activity): 0.77 ± 6.52%; EC50 [1, 7]: > 14100 nM
CCn1c(=O)n(CC(=O)NCC2COc3ccccc3O2)c(=O)c2ccccc21 (centres unmarked) [SR-01000589950]	90.30 ± 31.36	5.98	5.98	0.36					0.72	36.4				Lipophilic Efficiency (logD) ([1]; HEK Agonist Activity): 3.39; Lipophilic Efficiency (logP) ([1]; HEK Agonist Activity): 3.39; Averaged Max % Response (±St. Dev.) ([1]; HEK Agonist Activity): −9.62 ± 21.31%; EC50 [1, 3]: > 14100 nM
